Measured values as given in ChEMBL document CHEMBL3045401, “(Naphthalen-1-yloxy)-acetic acid benzylidene/(1-phenyl-ethylidene)-hydrazide derivatives: synthesis, antimicrobial evaluation, and QSAR studies” (Med Chem Res, 2012).
≈ marks a conversion by molar mass, not a printed value.

What was measured:
Human alphaherpesvirus 3 [1] = assay: Antiviral activity against thymidine kinase-deficient Human herpesvirus 3 infected in HEL cells assessed as inhibition of viral plaque formation; assay type: functional, organism-based; settings: Human alphaherpesvirus 3, HEL
Human betaherpesvirus 5 [2] = assay: Antiviral activity against Human herpesvirus 5 Davis infected human HEL cells assessed as reduction in the virus plaque formation; assay type: functional, organism-based; settings: Human betaherpesvirus 5, Davis
Bacillus subtilis = assay: Antimicrobial activity against Bacillus subtilis after 24 hr by serial dilution method; assay type: functional
Human betaherpesvirus 5 [3] = assay: Antiviral activity against Human herpesvirus 5 strain AD169 infected human HEL cells assessed as reduction in the virus plaque formation; assay type: functional, organism-based; settings: Human betaherpesvirus 5, AD169, HEL
Human alphaherpesvirus 3 [4] = assay: Antiviral activity against thymidine kinase-positive Human herpesvirus 3 infected in HEL cells assessed as inhibition of viral plaque formation; assay type: functional, organism-based; settings: Human alphaherpesvirus 3, HEL
Aspergillus niger = assay: Antimicrobial activity against Aspergillus niger after 7 days by serial dilution method; assay type: functional
Candida albicans = assay: Antimicrobial activity against Candida albicans after 2 days by serial dilution method; assay type: functional
Escherichia coli = assay: Antimicrobial activity against Escherichia coli after 24 hr by serial dilution method; assay type: functional
[5] = tested on: Human immunodeficiency virus 1; assay: Antiviral activity against Human immunodeficiency virus 1 IIIB infected human MT4 cells assessed as inhibition of virus-induced cytopathic effect after 4 days by MTT assay; assay type: functional, organism-based; settings: MT4, 96 h
[6] = Cytotoxicity against HEL; assay type: cell-based; settings: human, HEL cells
[7] = Cytotoxicity against HEL assessed as minimum concentration required to cause morphological changes; assay type: cell-based; settings: human, HEL cells
[8] = tested on: Human immunodeficiency virus 2; assay: Antiviral activity against Human immunodeficiency virus type 2 (ISOLATE ROD) infected human MT4 cells assessed as inhibition of virus-induced cytopathic effect after 4 days by MTT assay; assay type: functional, organism-based; settings: Human immunodeficiency virus 2, ISOLATE ROD, MT4, 96 h
[9] = Octanol-water partition coefficient, log P of the compound; assay type: physicochemical
Staphylococcus aureus = assay: Antimicrobial activity against Staphylococcus aureus after 24 hr by serial dilution method; assay type: functional
[10] = Cytotoxicity against Homo sapiens (human) MT4 cells after 4 days by MTT assay; assay type: cell-based

In the case of CCOc1ccc(/C=N/NC(=O)COc2cccc3ccccc23)cc1O, the EC50 (Human alphaherpesvirus 3 [1]) is reported as > 4 µg/mL, the EC50 (Human betaherpesvirus 5 [2]) is reported as > 20 µg/mL and the “-logMIC” value (Bacillus subtilis) is reported as 1.46. For the same compound, the EC50 (Human betaherpesvirus 5 [3]) was > 20 µg/mL, the EC50 (Human alphaherpesvirus 3 [4]) was > 4 µg/mL and the “-logMIC” value (Aspergillus niger) was 1.46. The “-logMIC” value (Candida albicans) was 1.46, the “-logMIC” value (Escherichia coli) was 1.46 and the EC50 [5] was > 6.23 µg/mL. For the same compound, the CC50 [6] was 18.1 µg/mL (≈ 49.7 µM), the MCC [7] was 100 µg/mL and the EC50 [8] was > 6.23 µg/mL. For the same compound, the logP [9] was 3.82, the “-logMIC” value (Staphylococcus aureus) was 1.16 and the CC50 at 96 h [10] was 6.23 µg/mL (≈ 17.1 µM).

For COc1cc(/C=N/NC(=O)COc2cccc3ccccc23)cc(OC)c1O, the EC50 (Human alphaherpesvirus 3 [1]) was > 20 µg/mL, the EC50 (Human betaherpesvirus 5 [2]) was > 20 µg/mL and the “-logMIC” value (Bacillus subtilis) was 1.48. The EC50 (Human betaherpesvirus 5 [3]) was > 20 µg/mL, the EC50 (Human alphaherpesvirus 3 [4]) was 16.9 µg/mL (≈ 44.4 µM) and the “-logMIC” value (Aspergillus niger) was 1.48. The “-logMIC” value (Candida albicans) was 1.78, the “-logMIC” value (Escherichia coli) was 1.48 and the EC50 [5] was > 16.3 µg/mL. The CC50 [6] was 52.8 µg/mL (≈ 139 µM), the MCC [7] was 100 µg/mL and the EC50 [8] was > 16.3 µg/mL. The logP [9] was 3.23, the “-logMIC” value (Staphylococcus aureus) was 1.18 and the CC50 at 96 h [10] was 16.3 µg/mL (≈ 42.8 µM).

With CSc1ccc(/C=N/NC(=O)COc2cccc3ccccc23)cc1 the EC50 (Human alphaherpesvirus 3 [1]) was > 20 µg/mL, the EC50 (Human betaherpesvirus 5 [2]) was > 20 µg/mL and the “-logMIC” value (Bacillus subtilis) was 0.85. For the same compound, the EC50 (Human betaherpesvirus 5 [3]) was > 20 µg/mL, the EC50 (Human alphaherpesvirus 3 [4]) was > 20 µg/mL and the “-logMIC” value (Aspergillus niger) was 0.54. The “-logMIC” value (Candida albicans) was 1.45, the “-logMIC” value (Escherichia coli) was 0.85 and the EC50 [5] was > 68.3 µg/mL. For the same compound, the CC50 [6] was > 100 µg/mL, the MCC [7] was ≥ 100 µg/mL and the EC50 [8] was > 68.3 µg/mL. For the same compound, the logP [9] was 4.11, the “-logMIC” value (Staphylococcus aureus) was 0.85 and the CC50 at 96 h [10] was 68.3 µg/mL (≈ 195 µM).

In the case of Cc1ccc(/C=N/NC(=O)COc2cccc3ccccc23)cc1, the EC50 (Human alphaherpesvirus 3 [1]) is reported as > 20 µg/mL, the EC50 (Human betaherpesvirus 5 [2]) is reported as > 4 µg/mL and the “-logMIC” value (Bacillus subtilis) is reported as 0.52. The EC50 (Human betaherpesvirus 5 [3]) was > 4 µg/mL, the EC50 (Human alphaherpesvirus 3 [4]) was > 20 µg/mL and the “-logMIC” value (Aspergillus niger) was 0.82. For the same compound, the “-logMIC” value (Candida albicans) was 0.52, the “-logMIC” value (Escherichia coli) was 0.52 and the EC50 [5] was > 83.9 µg/mL. For the same compound, the CC50 [6] was 80.1 µg/mL (≈ 252 µM), the MCC [7] was 20 µg/mL and the EC50 [8] was > 83.9 µg/mL. For the same compound, the logP [9] was 4.49, the “-logMIC” value (Staphylococcus aureus) was 1.12 and the CC50 at 96 h [10] was 83.9 µg/mL (≈ 263 µM).

With NNC(=O)COc1ccc2ccccc2c1 [2-NAPHTHOXY ACETIC ACID HYDRAZIDE] the “-logMIC” value (Bacillus subtilis) was 0.64, the “-logMIC” value (Aspergillus niger) was 0.64 and the “-logMIC” value (Candida albicans) was 0.64. The “-logMIC” value (Escherichia coli) was 0.94 and the “-logMIC” value (Staphylococcus aureus) was 0.94.

Work on Nc1nc2c(ncn2COCCO)c(=O)[nH]1 [ACYCLOVIR] yielded an EC50 (Human alphaherpesvirus 3 [1]) of 23 µg/mL (≈ 102 µM), an EC50 (Human alphaherpesvirus 3 [4]) of 0.44 µg/mL (≈ 1.95 µM) and a CC50 [6] of 120 µg/mL (≈ 533 µM). The MCC [7] was > 100 µg/mL.

In the case of O=c1[nH]c(=O)n([C@H]2C[C@H](O)[C@@H](CO)O2)cc1/C=C/Br [BRIVUDINE], the EC50 (Human alphaherpesvirus 3 [1]) is reported as 20 µg/mL (≈ 60 µM), the EC50 (Human alphaherpesvirus 3 [4]) is reported as 0.0093 µg/mL (≈ 0.0279 µM) and the CC50 [6] is reported as 173 µg/mL (≈ 519 µM). The MCC [7] was > 100 µg/mL.

Nc1ccn(C[C@@H](CO)OCP(=O)(O)O)c(=O)n1.O.O [CIDOFOVIR] showed an EC50 (Human betaherpesvirus 5 [2]) of 0.3 µg/mL, an EC50 (Human betaherpesvirus 5 [3]) of 0.8 µg/mL and a CC50 [6] of 35.4 µg/mL. The MCC [7] was > 100 µg/mL.

With OC(Cn1cncn1)(Cn1cncn1)c1ccc(F)cc1F [FLUCONAZOLE] the “-logMIC” value (Aspergillus niger) was 2.64 and the “-logMIC” value (Candida albicans) was 2.64.

Nc1nc2c(ncn2COC(CO)CO)c(=O)[nH]1 [GANCICLOVIR] gave an EC50 (Human betaherpesvirus 5 [2]) of 1.79 µg/mL (≈ 7.01 µM), an EC50 (Human betaherpesvirus 5 [3]) of 2.68 µg/mL (≈ 10.5 µM) and a CC50 [6] of 60.5 µg/mL (≈ 237 µM). For the same compound, the MCC [7] was > 100 µg/mL.

In the case of Cc1ccnc2c1NC(=O)c1cccnc1N2C1CC1 [NEVIRAPINE], the EC50 [8] is reported as > 4 µg/mL and the CC50 at 96 h [10] is reported as > 4 µg/mL.

With CCn1cc(C(=O)O)c(=O)c2cc(F)c(N3CCNCC3)cc21 [NORFLOXACIN] the “-logMIC” value (Bacillus subtilis) was 2.61, the “-logMIC” value (Escherichia coli) was 2.61 and the “-logMIC” value (Staphylococcus aureus) was 2.61.

With Cc1cn([C@H]2C[C@H](N=[N+]=[N-])[C@@H](CO)O2)c(=O)[nH]c1=O [ZIDOVUDINE] the EC50 [5] was 0.002 µg/mL (≈ 0.00748 µM) and the CC50 at 96 h [10] was > 25 µg/mL.
